Results reported in article PMC6255099, “Amides from Piper capense with CNS Activity – A Preliminary SAR Analysis” (Molecules, 2009).
Values joined by “and” are separate entries in the source; they are usually repeats but may differ in a detail not shown here. Identical values can stand only once. Like-named read-outs stand apart in the source and are kept apart here. Each block holds one molecule with its values, some of them ahead of it.

Legend:
[1] = test system: benzodiazepine site on the GABAA receptor; assay: [3H]-flumazenil binding assay (GABA-benzodiazepine binding assay); set-up: species or system rat; details: for affinity for the benzodiazepine site (in words): [3H]-flumazenil binding assay; for Ki: as worded in text b6; for IC50: rat brain cortex, 0.5 nM [3H]-flumazenil, mean ± standard error, n.d. = not detected in tested concentrations below 10 mM
Description: (§1) The GABA binding assay was carried out according to a previously published method, with modifications. To a suspension of rat brain cortex (500 µL) was added test solution (25 µL) and [^3H]-flumazenil (25 µL, Ro 15-1788, Perkin-Elmer Life Science) to 0.5 nM final concentration in the assay. The suspension was mixed and incubated for 40 min on ice and poured directly onto glass fiber filters (Adventic, GC-50) under suction, in an ice-bath, followed by washing with ice-cold Tris-citrate buffer. The amount of radioactivity was determined by liquid scintillation counting. Non-specific binding was determined using diazepam (1 µM final concentration in the assay) and flumazenil was used as positive control. Specific binding was calculated as total binding minus non-specific binding. All experiments were done in triplicate. The serotonin re-uptake inhibition assay was performed according to previously described methods.

MES seizures in mice = test system: MES seizures in mice; set-up: method as in doi:10.1016/S0165-7208(06)80055-3; details: cited from earlier work
[2] = molecular target: serotonin re-uptake transport protein (Rattus norvegicus, UniProt P31652); assay: [3H]-citalopram binding assay (serotonin re-uptake inhibition assay)
Description: as §1

GABAA receptor = test system: GABAA receptor; set-up: method as in PMID 1332016; details: cited from earlier work
[3] = mean ± standard error, n.d. = not detected in tested concentrations below 10 mM, read-out: [3H]-citalopram binding assay IC50
[4] = read-out: Ki, serotonin re-uptake transport protein

Sequence of serotonin re-uptake transport protein (P31652 whole entry): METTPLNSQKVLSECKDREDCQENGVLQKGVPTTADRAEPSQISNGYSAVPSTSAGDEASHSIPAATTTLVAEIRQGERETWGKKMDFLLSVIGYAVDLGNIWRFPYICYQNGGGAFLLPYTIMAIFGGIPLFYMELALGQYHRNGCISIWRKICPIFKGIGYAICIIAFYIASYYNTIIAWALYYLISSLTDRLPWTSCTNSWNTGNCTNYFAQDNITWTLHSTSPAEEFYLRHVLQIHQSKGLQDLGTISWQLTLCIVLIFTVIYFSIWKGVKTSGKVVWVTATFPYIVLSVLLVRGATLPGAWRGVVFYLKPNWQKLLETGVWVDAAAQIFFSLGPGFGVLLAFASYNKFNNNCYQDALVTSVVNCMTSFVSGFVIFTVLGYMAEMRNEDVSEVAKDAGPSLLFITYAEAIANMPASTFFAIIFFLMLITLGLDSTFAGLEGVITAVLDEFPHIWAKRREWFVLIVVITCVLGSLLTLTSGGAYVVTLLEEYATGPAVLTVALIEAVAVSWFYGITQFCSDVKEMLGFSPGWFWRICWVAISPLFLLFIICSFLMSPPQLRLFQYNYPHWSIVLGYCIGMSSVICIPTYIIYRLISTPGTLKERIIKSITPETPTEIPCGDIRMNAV

affinity for the benzodiazepine site (in words) [1]: no affinity
Compound: O=C(/C=C/c1ccc2c(c1)OCO2)N1CCCCC1 [Compound 5, Antiepilepsirine]

Ki [1]: 1.175 ± 0.003 mM | IC50 [1]: 1.2 mM and 1.18 mM
Compound: O=C(/C=C/C=C/c1ccc2c(c1)OCO2)N1CCCCC1 [Compound 1, Piperine]

affinity for the benzodiazepine site (in words) [1]: lack of affinity
Compound: CC(C)NC(=O)CCc1ccc2c(c1)OCO2 [Compound 10, 3-Benzo[1,3]dioxol-5-yl-N-isopropyl-propionamide]
protection against MES induced seizures (MES seizures in mice): protection

affinity for the benzodiazepine site (in words) [1]: lack of affinity
Compound: O=C(CCc1ccc2c(c1)OCO2)N1CCCCC1 [Compound 6, 3-Benzo[1,3]dioxol-5-yl-1-piperidin-1-yl-propan-1-one]
protection against MES induced seizures (MES seizures in mice): protection

Ki [1]: 1.054 ± 0.004 mM | IC50 [1]: 1 mM and 1.05 mM | IC50 [2, 3]: 2.98 ± 1.63 mM | IC50 [2, 4]: 2.98 ± 1.63 mM
Compound: O=C(/C=C/CCc1ccc2c(c1)OCO2)N1CCCCC1 [Compound 2, 4,5-Dihydropiperine]

IC50 [2, 3]: 0.585 ± 1.52 mM
Compound: O=C(CCCCc1ccc2c(c1)OCO2)N1CCCCC1 [Compound 4, Tetrahydropiperidine]

Compound: COC1=CC(=O)O[C@@H](/C=C/c2ccc3c(c2)OCO3)C1 [methysticin, Methysticin]
association of GABAA receptor activation with the benzodiazepine binding site (GABAA receptor): not to be associated with the benzodiazepine binding site

IC50 [2, 3]: 2.69 ± 1.39 mM | IC50 [2, 4]: 2.69 ± 1.39 mM
Compound: O=C(/C=C/CCc1cc2c(cc1Cl)OCO2)N1CCCCC1 [Compound 8, trans-5-(6-Chlorobenzo[1,3]dioxol-5-yl)-1-(piperidin-1-yl)pent-2-en-1-one]
